Data reported in PMC3531393, “In Vitro Evaluation of ESE-15-ol, an Estradiol Analogue with Nanomolar Antimitotic and Carbonic Anhydrase Inhibitory Activity” (PLoS ONE, 2012).

Molecular target: T1, carbonic anhydrase II (CAII) (Homo sapiens, UniProt P00918)
T1 construct: gene CA2; wild-type
Assay: […] exchange between CO2 and water by membrane-inlet mass spectrometry; Henderson tight-binding analysis
Assay type: biochemical

## CCc1cc2c(cc1OS(N)(=O)=O)CC[C@@H]1C2CC[C@]2(C)[C@@H](O)C=C[C@@H]12 (stereo partly shown) [ESE-15-ol, 2-ethyl-3-O-sulphamoyl-estra-1,3,5(10),15-tetraen-17-ol]
  Ki: 0.167 ± 0.019 µM
